Measured values as given in patent US6656973B2, “(E)-4-carboxystyrl-4-chlorobenzyl sulfone and pharmaceutical compositions thereof” (Temple University - Of the Commonwealth System of Higher …, priority 1999, dated 2003).
“Also recorded” adds a separate entry of the source.

Tests used:
Normal human HFL-1 cells = assay: Cytoprotection assay against paclitaxel; format: cell-based; set-up: key: +: A compound was deemed to be active if the number of viable cells following the combination treatment was higher than the number of cells after treatment with paclitaxel alone; settings: 2.0 or 10 μM sulfone, paclitaxel 250 nM at time zero or 24 hours later, viable cells after 96 hours of paclitaxel
Procedure: The cytoprotective activity of the same Istyryl benzylsulfones was determined as follows. Normal human HFL-1 cells were plated at a cell density of 1.0×10^5 cells per well in six culture plates. Styryl benzylsulfone was added 24 hours later at a final concentration of either 2.0 or 10 μM. The time of styryl sulfone addition was designated as time zero. Paclitaxel (250 nM) was added at either time zero, or 24 hours after time zero. The total number of viable cells was determined, as described above, after 96 hours of paclitaxel treatment. A compound was deemed to be active if the number of viable cells following the combination treatment was higher than the number of cells after treatment with paclitaxel alone.

HFL-1 cells [1] = assay: Protection of normal human fibroblasts from paclitaxel cytotoxicity; format: cell-based; settings: HFL-1 cells pretreated with 2.0 μM for 8 hours, then paclitaxel (250 μM); viable cells 96 hours after paclitaxel
Procedure: FIG. 3 is a graph of the effect of paclitaxel on HFL-1 cells which were either pre-treated with (E)-4-fluorostyryl-4-chlorobenzylsulfone and then exposed to paclitaxel, or treated simultaneously with both agents. Cells were enumerated 96 hours after exposure to paclitaxel.
HFL-1 cells were plated at a cell density of 1.0×10^5 per well 24 hours prior to drug addition. Cells were pretreated with (E)-4-fluorostyryl-4-chlorobenzylsulfone (2.0 μM) for 8 hours and then exposed to paclitaxel (250 μM). Other cells were treated with paclitaxel alone, or both agents simultaneously. Cells were enumerated by Trypan blue exclusion using a hematocytometer 96 hours after exposure to paclitaxel. The ordinate in FIG. 3 represents the number of viable cells following treatment with (E)-4-fluorostyryl-4-chlorobenzylsulfone and paclitaxel, divided by the number of viable cells remaining after treatment with paclitaxel alone.

HFL-1 cells [2] = assay: Protection of normal human fibroblasts from anticancer agent cytotoxicity (Protection Ratio); format: cell-based; settings: 2.0 μM sulfone 24 hour preincubation, then cisplatin 5.0 μM; viable cells at 96 hours
Procedure: HFL-1 cells were plated at a cell density of 1.0×10^5 in 1 ml of medium. Twenty-four hours following plating, 2.0 μM of (E)-4-fluorostyryl-4-chlorobenzylsulfone was added to the medium. Following a 24 hour preincubation with the styryl sulfone, the various cytotoxic agents listed in Table 6 were added to the cells, at the concentrations given in Table 6. the number of viable cells was determined by Trypan blue exclusion using a hematocytometer 96 hours after exposure to cytotoxic agent. The “Protection Ratio” is the number of viable cells following treatment with (E)-4-fluorostyryl-4-chlorobenzylsulfone and cytotoxic agent, divided by the number of viable cells remaining after treatment with cytotoxic agent alone. A protection ratio of 2 or more is considered highly significant, while is protection ratio of 1.5-2 is considered less significant.

HFL-1 cells [3] = assay: Long term exposure of normal human fibroblasts, cell count; format: cell-based; settings: 2.5 or 5.0 μM for 48 or 72 hours, counted 96 hours after the incubation period
Procedure: Cells were exposed to either 2.5 or 5.0 μM of the styryl sulfone […] and counted.
HFL-1 cells were plated at a cell density of 1.0×10^5 per well 24 hours prior to drug addition. Cells were exposed to either 2.5 or 5.0 μM (E)-4-fluorostyryl-4-chlorobenzylsulfone for 48 or 72 hours. Cells were counted 96 hours after the incubation period.

HFL-1 cells [4] = assay: Protection of normal human fibroblasts from vincristine cytotoxicity; format: cell-based; settings: 2.0 μM sulfone 24 hours before vincristine, viability 96 hours after vincristine
Procedure: Normal HFL cells were treated with 0 to 0.250 nM vincristine and 2.0 μM (E)-4-fluorostyryl-4-chlorobenzylsulfone as indicated. Cell viability was assessed 96 hours after vincristine was added. “V”, vincristine alone; “A→V”, styryl sulfone followed by vincristine 24 hours later; “A+V”, simultaneous styryl sulfone and vincristine treatment; “V→A”, vincristine followed by styryl sulfone 24 hours later.
HFL-1 cells were treated with […] vincristine and, optionally, 2.0 μM (E)-4-fluorostyryl-4-chlorobenzylsulfone either 24 hours before or after vincristine treatment, or simultaneously with vincristine treatment. Cell viability was assessed 96 hours after the addition of vincristine. The results are shown in FIG. 4: “V”, vincristine alone; “A→V”, styryl sulfone followed by vincristine 24 hours later; “A+V”, simultaneous styryl sulfone and vincristine treatment; “V→A”, vincristine followed by styryl sulfone 24 hours later.

ICR female mice = assay: Protection of mice from paclitaxel toxicity (mortality); format: in vivo; settings: 50 mg/Kg i.p. pre-treatment before 150 mg/kg paclitaxel i.p.; mortality at 48 and 144 hours
Procedure: The styryl sulfone was given 24 hours before paclitaxel, 4 hours before paclitaxel, or simultaneously with paclitaxel. Control animals received paclitaxel alone or styryl sulfone alone. Mortality was assessed 48 after paclitaxel injection.
FIG. 6 is similar to FIG. 5, except that mortality was assessed 144 hours post paclitaxel administration.
ICR female mice age 10-12 weeks (Taconic) were divided into the following treatment groups and received intraperitoneal injections of 50 mg/Kg (E)-4-fluorostyryl-4-chlorobenzylsulfone dissolved in DMSO and/or 150 mg/kg paclitaxel (Taxol, Sigma Chemical Co.) dissolved in DMSO. The styryl sulfone was given 24 hours before paclitaxel, 4 hours before paclitaxel, or simultaneously with paclitaxel. Control animals received paclitaxel alone or styryl sulfone alone. Mortality was assessed 48 and 144 hours after paclitaxel injection. The results are shown in FIG. 5 (48 hours post paclitaxel administration) and FIG. 6 (144 hours post paclitaxel administration). Paclitaxel toxicity in mice is abrogated by pre-treatment with (E)-4-fluorostyryl-4-chlorobenzylsulfone.

| SMILES | Cytoprotection (Normal human HFL-1 cells) | other results |
| --- | --- | --- |
| O=S(=O)(/C=C/c1ccc(Cl)cc1)Cc1ccc(Cl)cc1 [Example 8, (E)-4-chlorostyryl-4-chlorobenzyl sulfone] | + |  |
| O=S(=O)(/C=C/c1ccc(F)cc1)Cc1ccc(Cl)cc1 [Example 7, (E)-4-fluorostyryl-4-chlorobenzyl sulfone] | + | protection from the toxic effects of paclitaxel (HFL-1 cells [1]): conferred protection from the toxic effects of paclitaxel; Protection Ratio (HFL-1 cells [2]): 1.3; replication rate (cell count) (HFL-1 cells [3]): transiently reduced replication rates; protection from the toxic effects of vincristine (HFL-1 cells [4]): conferred protection from the toxic effects of vincristine; also recorded: Vincristine toxicity is abrogated; paclitaxel toxicity in mice (mortality) (ICR female mice): abrogated |
| O=C(O)c1ccc(/C=C/S(=O)(=O)Cc2ccc(Cl)cc2)cc1 [Example 10, (E)-4-carboxystyryl-4-chlorobenzyl sulfone] | + |  |
| O=S(=O)(/C=C/c1ccc(F)cc1)Cc1ccc(Cl)cc1Cl [Example 11, (E)-4-fluorostyryl-2,4-dichlorobenzyl sulfone] | + |  |
| O=S(=O)(/C=C/c1ccc(F)cc1Cl)Cc1ccc(Cl)cc1 [Example 9, (E)-2-chloro-4-fluorostyryl-4-chlorobenzyl sulfone] | + |  |
